ChEMBL document CHEMBL1201862, “PubChem BioAssay data set” (2004)
Each block holds one compound with its values, some of them ahead of it. Calls of active or inactive are those of the source.

Key:
[1] = cytotoxicity in A549 cells, dose response, cytotoxicity control, cell-based, CellTiter-Glo luminescence, cherry-pick (AID 743484); format: functional
[2] = Luminescence-based cell-based high throughput dose response assay to identify activators of the DAF-12 from the parasite S. stercoralis (ssDAF-12).; format: functional
[3] = molecular target: T1, Oxysterols receptor LXR-beta (Homo sapiens, UniProt P55055); test: LXR agonists, Gal4 luciferase reporter, dose response, counter-screen for ssDAF-12 agonist project, cell-based, luminescence, HEK293, S. stercoralis campaign (AID 720737); format: functional; conditions: read-out: IC50 (the source's name)
T1 sequence (P55055 whole entry): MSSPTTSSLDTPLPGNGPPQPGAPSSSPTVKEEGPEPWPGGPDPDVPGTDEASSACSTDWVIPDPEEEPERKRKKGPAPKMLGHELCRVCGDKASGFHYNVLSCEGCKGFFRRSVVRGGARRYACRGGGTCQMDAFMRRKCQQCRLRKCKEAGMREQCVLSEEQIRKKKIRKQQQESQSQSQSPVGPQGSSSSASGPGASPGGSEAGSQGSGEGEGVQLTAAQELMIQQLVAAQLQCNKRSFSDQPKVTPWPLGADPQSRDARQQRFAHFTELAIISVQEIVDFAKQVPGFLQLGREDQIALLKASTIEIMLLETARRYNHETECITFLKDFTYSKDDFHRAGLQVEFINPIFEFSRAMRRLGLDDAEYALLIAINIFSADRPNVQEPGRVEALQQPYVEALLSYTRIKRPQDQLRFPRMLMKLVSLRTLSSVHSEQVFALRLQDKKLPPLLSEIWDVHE

[4] = molecular target: T2, Short transient receptor potential channel 4 (Mus musculus, UniProt Q9QUQ5); test: mouse TRPC4 channel inhibitors, dose response, cell-based, HEK293 TRPC4/mu-opioid, Fluo-4 calcium (AID 434942); format: functional;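 also: potency of inhibitors blocking the TRPC4 calcium response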
T2 sequence (Q9QUQ5 whole entry): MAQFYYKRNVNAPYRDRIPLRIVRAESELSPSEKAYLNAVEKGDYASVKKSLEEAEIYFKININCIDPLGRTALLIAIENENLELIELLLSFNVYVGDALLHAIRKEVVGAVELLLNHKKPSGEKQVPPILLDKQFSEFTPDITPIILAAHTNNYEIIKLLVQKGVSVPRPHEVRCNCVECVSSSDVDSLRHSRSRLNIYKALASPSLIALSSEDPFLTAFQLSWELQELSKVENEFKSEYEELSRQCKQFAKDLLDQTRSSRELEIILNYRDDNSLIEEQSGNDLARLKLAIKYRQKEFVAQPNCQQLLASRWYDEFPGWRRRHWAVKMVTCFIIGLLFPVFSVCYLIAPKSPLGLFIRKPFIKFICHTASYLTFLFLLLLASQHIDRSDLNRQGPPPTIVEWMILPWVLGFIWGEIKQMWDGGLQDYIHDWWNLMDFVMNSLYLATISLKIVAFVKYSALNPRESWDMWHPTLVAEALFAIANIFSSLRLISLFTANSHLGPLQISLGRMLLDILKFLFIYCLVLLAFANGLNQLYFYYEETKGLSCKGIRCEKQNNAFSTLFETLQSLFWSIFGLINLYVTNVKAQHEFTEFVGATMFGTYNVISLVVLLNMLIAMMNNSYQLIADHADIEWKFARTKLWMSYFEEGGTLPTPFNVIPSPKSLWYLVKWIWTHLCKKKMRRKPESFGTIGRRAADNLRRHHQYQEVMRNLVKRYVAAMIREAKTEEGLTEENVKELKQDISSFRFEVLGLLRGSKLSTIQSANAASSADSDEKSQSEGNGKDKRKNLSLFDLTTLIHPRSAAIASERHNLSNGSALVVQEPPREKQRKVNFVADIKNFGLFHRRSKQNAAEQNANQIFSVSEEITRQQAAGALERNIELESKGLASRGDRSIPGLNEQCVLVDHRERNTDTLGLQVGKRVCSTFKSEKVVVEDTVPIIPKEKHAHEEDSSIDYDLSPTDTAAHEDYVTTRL

[5] = molecular target: T2, Short transient receptor potential channel 4; test: mouse TRPC4 channel activators, dose response, cell-based, HEK293 TRPC4/mu-opioid, Fluo-4 calcium (AID 434937); format: functional
[6] = cells; format: functional, cell-based
[7] = molecular target: T3, Trace amine-associated receptor 1 (Homo sapiens, UniProt Q96RJ0); test: Fluorescence-based cell-based high throughput dose response assay to identify agonists of the human trace amine associated receptor 1 (TAAR1).; format: functional
T3 sequence (Q96RJ0 whole entry): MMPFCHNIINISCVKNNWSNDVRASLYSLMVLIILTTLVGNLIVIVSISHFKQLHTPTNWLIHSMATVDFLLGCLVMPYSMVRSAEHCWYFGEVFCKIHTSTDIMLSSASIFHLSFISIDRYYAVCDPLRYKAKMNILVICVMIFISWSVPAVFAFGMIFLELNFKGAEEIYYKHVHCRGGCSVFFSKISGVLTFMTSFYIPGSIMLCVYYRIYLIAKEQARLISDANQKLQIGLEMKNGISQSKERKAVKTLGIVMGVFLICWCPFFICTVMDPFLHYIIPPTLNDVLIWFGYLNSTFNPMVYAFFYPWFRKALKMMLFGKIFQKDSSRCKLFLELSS

[8] = molecular target: T3, Trace amine-associated receptor 1; test: Counterscreen for agonists of the human trace amine associated receptor 1 (hTAAR1): Fluorescence-based cell-based high throughput dose response assay to identify hTAAR1 agonist that also desensitize TAAR1 receptor response.; format: functional
[9] = cells; format: functional, cell-based; remark: listed apart in the source
[10] = HeLa cell cytotoxicity, dose response, cytotoxicity control, 24 h, plate reader, dry powder (AID 686928); format: functional, cell-based
[11] = molecular target: fMet-Leu-Phe receptor (Homo sapiens, UniProt P21462); test: FPR ligands, dose response (AID 519); format: functional
Sequence of fMet-Leu-Phe receptor (P21462 whole entry): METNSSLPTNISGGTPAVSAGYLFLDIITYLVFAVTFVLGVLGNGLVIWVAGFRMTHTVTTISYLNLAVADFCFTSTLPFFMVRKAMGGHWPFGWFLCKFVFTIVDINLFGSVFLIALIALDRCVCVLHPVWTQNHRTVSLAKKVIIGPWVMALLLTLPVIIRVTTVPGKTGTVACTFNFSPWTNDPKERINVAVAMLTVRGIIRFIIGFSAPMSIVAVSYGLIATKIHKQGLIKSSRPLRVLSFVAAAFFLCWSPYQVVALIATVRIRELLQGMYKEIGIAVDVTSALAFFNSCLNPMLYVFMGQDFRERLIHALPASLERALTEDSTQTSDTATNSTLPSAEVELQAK

[12] = molecular target: NAD-dependent protein deacylase sirtuin-5, mitochondrial (Homo sapiens, UniProt Q9NXA8); test: SIRT5 desuccinylase inhibitors, dose response, biochemical, fluorescence imaging, cherry-pick, set 5 (AID 720591);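 also: desuccinylation of succinyl peptide AMC substrate read as fluorescence after trypsin release; potency of inhibitors that lower fluorescence and may act on trypsin instead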
Sequence of NAD-dependent protein deacylase sirtuin-5, mitochondrial (Q9NXA8 whole entry): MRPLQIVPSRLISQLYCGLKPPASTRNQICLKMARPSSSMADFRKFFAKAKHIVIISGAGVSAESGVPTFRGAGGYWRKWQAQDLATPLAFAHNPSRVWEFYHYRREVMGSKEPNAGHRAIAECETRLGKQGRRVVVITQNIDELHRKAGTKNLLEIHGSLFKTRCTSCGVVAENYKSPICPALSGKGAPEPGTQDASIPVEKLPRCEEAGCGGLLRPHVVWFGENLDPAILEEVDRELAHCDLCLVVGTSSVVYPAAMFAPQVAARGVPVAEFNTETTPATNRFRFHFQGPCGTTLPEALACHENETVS

[13] = molecular target: Cytochrome P450 3A4 (Homo sapiens, UniProt P08684);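 also: CYP3A4 tested as one member of a cytochrome P450 panel screen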
Sequence of Cytochrome P450 3A4 (P08684 whole entry): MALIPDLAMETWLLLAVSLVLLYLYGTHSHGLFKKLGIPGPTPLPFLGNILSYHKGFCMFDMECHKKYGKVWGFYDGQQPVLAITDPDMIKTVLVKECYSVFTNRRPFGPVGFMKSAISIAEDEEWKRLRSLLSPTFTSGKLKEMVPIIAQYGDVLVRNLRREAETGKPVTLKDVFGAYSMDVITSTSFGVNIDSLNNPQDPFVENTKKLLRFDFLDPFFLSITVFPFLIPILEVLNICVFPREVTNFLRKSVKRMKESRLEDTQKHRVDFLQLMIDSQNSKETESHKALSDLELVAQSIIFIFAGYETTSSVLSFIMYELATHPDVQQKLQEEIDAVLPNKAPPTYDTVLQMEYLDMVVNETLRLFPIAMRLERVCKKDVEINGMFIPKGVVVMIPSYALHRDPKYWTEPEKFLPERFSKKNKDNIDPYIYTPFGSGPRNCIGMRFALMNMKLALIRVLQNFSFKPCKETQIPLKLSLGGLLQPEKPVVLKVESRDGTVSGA

[14] = test system: HeLa; test: HeLa cell cytotoxicity, dose response, cytotoxicity control, ATP luminescence, cherry-pick samples (AID 687004); format: functional, cell-based; conditions: Homo sapiens
[15] = test system: HEK293; test: HEK293T cell cytotoxicity, dose response, cytotoxicity control, ATP luminescence, cherry-pick samples (AID 687005); format: functional, cell-based; conditions: Homo sapiens;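 also: cells exposed to compound for 48 hours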
[16] = HEK293 Cytotoxicity Assay Measured in Cell-Based System Using Plate Reader - 7071-01_Inhibitor_Dose_CherryPick_Activity_Set2.; format: functional
[17] = molecular target: Kallikrein-7 (Homo sapiens, UniProt P49862); test: Fluorescence Intensity-based biochemical primary high throughput dose response assay to identify activators of kallikrein-7 (K7) zymogen.
Sequence of Kallikrein-7 (P49862 whole entry): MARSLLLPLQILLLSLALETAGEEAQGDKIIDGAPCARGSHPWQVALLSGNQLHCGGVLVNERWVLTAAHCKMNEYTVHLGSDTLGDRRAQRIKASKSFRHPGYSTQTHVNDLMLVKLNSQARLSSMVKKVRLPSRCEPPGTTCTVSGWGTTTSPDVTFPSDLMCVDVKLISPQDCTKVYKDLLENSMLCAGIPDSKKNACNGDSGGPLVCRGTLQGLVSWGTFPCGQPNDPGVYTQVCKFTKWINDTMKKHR

[18] = EDANS-DABCYL fluorescence interference, concentration series, dose response, artefact control for kallikrein-7 zymogen activator project, biochemical, fluorescence intensity, triplicate (AID 720493)

SMILES: CC1(Cc2ccccc2C#N)C(=O)Nc2cc(-c3ccccc3Cl)ccc21 (stereo not drawn)
AC50 [1]: > 52 µM (inactive)

SMILES: O=C(Cc1ccccc1[N+](=O)[O-])NCCc1ccc(F)cc1
IC50 [2]: > 67.6 µM (inactive)
EC50 [3]: > 67.6 µM (inactive)

SMILES: OC(CNC1CCCc2ccccc21)COc1c(Cl)cccc1Cl (stereo not drawn)
EC50 [4]: 1.33 µM (active)
EC50 [5]: 5.96 µM (active)
IC50 [6]: 13.9 µM (inactive)
EC50 [7]: 1.57 µM (active)
IC50 [8]: 8.84 µM (active)
EC50 [9]: 11.7 µM (inactive)

SMILES: Cc1ccc(-n2cnc(=O)c3ccccc32)cc1Cl
AC50 [10]: > 160 µM (inactive)

Ki [11]: 5 µM (active)
SMILES: COC(=O)c1[nH]c(C)c(C(=O)C2=C(O)C(=O)N(CCN3CCOCC3)C2c2cccs2)c1C (stereo not drawn)

AC50 [12]: > 30 µM (inactive)
AC50 [13]: 1.41 µM (inconclusive)
SMILES: CCc1ccc(N(C(=O)c2csnn2)C(C(=O)NCc2ccccc2)c2ccco2)cc1 (stereo not drawn)

SMILES: C[C@@H]1CN([C@@H](C)CO)S(=O)(=O)c2ccc(C#Cc3ccccn3)cc2O[C@H]1CN(C)Cc1ccccc1
AC50 [14]: 39.1 µM (active)
AC50 [15]: 7.04 µM (active)
AC50 [16]: 7.04 µM (active)

EC50 [17]: > 2.58 µM (active)
SMILES: COc1ccc(-c2coc3c(CN4CCCCC4C)c(O)ccc3c2=O)cc1 (stereo not drawn)
EC50 [18]: > 2.58 µM (active)
